Experimental findings from ChEMBL document CHEMBL4828725 (Eur J Med Chem, 2021) are described below.

As a reminder, the IC50 is the point on the concentration scale where inhibition reaches its midpoint. The term inhibition denotes the drop in the measured response relative to a control, in per cent.

Assay [1] can be described thus: Inhibition of almond beta-glucosidase using p-nitrophenyl glycoside as substrate assessed as release of p-nitrophenol measured by spectrometric assay. Further details: species or system Prunus dulcis; call rule not given here.
Assay [2] can be described thus: Inhibition of Aspergillus niger amyloglucosidase using p-nitrophenyl glycoside as substrate assessed as release of p-nitrophenol measured by spectrometric assay.
For assay [3], the target named is Alpha-galactosidase (Coffea arabica, UniProt Q42656). The assay is described as follows: Inhibition of coffee beans alpha-galactosidase using p-nitrophenyl glycoside as substrate assessed as release of p-nitrophenol measured by spectrometric assay.
Chain of Alpha-galactosidase (Q42656 whole entry): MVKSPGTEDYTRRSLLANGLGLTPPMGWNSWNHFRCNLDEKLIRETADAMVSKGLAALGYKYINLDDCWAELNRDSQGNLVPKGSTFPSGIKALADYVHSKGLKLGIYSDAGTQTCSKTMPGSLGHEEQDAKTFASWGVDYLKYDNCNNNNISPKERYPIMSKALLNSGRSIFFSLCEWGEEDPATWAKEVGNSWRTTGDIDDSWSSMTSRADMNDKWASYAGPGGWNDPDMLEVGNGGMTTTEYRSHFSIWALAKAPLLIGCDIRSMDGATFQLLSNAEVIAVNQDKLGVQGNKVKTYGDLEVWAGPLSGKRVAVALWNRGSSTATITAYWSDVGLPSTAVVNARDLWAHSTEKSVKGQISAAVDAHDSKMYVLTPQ
Assay [4] can be described thus: Inhibition of Penicillium decumbens alpha-L-rhamnosidase using p-nitrophenyl glycoside as substrate assessed as release of p-nitrophenol measured by spectrometric assay.
Assay [5] is described as follows: Inhibition of rice alpha-glucosidase using p-nitrophenyl glycoside as substrate assessed as release of p-nitrophenol measured by spectrometric assay. Set-up: species or system Oryza sativa.
Assay [6] concerns the target Beta-glucuronidase (Escherichia coli (strain K12), UniProt P05804). The assay is described as follows: Inhibition of Escherichia coli beta-glucuronidase using p-nitrophenyl glycoside as substrate assessed as release of p-nitrophenol measured by spectrometric assay.
In assay [7] the target is Maltase-glucoamylase (Homo sapiens, UniProt O43451). The assay is described as follows: Inhibition of human alpha-glucosidase.
Assay [8] deals with T1, Sucrase-isomaltase, intestinal (Rattus norvegicus, UniProt P23739). The assay is described as follows: Inhibition of rat intestinal isomaltase using p-nitrophenyl glycoside as substrate assessed as release of p-nitrophenol measured by spectrometric assay.
T1 sequence (P23739 1-1013 limits assumed): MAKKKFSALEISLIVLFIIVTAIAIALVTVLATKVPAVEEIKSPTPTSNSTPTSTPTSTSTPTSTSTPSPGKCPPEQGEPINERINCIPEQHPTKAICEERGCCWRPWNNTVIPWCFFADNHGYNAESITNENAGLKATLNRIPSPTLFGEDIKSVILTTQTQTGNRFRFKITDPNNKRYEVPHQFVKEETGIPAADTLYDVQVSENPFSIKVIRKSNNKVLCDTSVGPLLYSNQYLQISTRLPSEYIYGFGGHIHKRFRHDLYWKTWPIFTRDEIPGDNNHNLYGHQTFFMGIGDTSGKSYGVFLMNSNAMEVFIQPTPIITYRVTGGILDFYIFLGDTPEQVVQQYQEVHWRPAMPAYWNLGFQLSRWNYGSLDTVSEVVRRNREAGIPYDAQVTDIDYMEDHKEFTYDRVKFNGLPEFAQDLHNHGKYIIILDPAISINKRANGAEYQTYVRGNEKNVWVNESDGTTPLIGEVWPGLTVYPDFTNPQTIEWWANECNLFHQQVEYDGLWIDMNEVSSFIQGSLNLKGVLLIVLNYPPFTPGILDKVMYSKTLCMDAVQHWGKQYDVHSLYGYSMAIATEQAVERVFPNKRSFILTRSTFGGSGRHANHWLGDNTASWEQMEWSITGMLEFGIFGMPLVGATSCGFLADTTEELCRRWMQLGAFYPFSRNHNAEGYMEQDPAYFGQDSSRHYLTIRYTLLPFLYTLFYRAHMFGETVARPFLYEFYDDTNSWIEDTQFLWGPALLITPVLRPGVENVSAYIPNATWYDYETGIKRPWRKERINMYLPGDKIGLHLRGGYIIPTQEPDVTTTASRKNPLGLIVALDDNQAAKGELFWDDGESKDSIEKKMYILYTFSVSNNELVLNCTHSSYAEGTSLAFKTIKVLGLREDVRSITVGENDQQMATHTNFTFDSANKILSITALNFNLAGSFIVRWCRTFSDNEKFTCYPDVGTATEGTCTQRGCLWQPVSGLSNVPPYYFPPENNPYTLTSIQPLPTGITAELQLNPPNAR
T1 sequence (P23739 1014-1841 limits assumed): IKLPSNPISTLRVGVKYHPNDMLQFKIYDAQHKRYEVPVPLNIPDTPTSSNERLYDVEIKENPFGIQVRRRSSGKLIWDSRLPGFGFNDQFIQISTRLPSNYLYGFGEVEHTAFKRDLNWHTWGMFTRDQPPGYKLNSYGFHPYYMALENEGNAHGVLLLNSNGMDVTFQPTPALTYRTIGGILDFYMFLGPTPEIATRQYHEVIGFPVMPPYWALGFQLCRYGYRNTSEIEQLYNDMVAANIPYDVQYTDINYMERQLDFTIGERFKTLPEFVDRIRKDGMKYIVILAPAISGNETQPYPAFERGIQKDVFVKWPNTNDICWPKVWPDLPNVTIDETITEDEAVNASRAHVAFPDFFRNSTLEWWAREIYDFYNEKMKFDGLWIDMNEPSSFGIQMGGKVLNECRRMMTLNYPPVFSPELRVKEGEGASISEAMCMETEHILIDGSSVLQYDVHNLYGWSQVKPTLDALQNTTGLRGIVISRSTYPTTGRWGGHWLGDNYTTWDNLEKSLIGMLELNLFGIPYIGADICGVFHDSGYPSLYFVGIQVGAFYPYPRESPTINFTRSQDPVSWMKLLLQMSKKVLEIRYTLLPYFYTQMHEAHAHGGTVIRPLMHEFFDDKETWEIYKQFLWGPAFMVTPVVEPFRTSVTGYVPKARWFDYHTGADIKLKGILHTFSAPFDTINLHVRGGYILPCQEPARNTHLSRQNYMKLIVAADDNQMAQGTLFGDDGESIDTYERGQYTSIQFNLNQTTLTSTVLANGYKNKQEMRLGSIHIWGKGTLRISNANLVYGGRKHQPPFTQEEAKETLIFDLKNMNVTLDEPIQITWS
Assay [9] is filed under the species Bos taurus. Put plainly: Inhibition of bovine liver beta-galactosidase using p-nitrophenyl glycoside as substrate assessed as release of p-nitrophenol at 1000 uM measured by spectrometric assay relative to control.
Assay [10] deals with T2, Alpha-mannosidase (Canavalia ensiformis) (UniProt C0HJB3).
T2 sequence (whole entry): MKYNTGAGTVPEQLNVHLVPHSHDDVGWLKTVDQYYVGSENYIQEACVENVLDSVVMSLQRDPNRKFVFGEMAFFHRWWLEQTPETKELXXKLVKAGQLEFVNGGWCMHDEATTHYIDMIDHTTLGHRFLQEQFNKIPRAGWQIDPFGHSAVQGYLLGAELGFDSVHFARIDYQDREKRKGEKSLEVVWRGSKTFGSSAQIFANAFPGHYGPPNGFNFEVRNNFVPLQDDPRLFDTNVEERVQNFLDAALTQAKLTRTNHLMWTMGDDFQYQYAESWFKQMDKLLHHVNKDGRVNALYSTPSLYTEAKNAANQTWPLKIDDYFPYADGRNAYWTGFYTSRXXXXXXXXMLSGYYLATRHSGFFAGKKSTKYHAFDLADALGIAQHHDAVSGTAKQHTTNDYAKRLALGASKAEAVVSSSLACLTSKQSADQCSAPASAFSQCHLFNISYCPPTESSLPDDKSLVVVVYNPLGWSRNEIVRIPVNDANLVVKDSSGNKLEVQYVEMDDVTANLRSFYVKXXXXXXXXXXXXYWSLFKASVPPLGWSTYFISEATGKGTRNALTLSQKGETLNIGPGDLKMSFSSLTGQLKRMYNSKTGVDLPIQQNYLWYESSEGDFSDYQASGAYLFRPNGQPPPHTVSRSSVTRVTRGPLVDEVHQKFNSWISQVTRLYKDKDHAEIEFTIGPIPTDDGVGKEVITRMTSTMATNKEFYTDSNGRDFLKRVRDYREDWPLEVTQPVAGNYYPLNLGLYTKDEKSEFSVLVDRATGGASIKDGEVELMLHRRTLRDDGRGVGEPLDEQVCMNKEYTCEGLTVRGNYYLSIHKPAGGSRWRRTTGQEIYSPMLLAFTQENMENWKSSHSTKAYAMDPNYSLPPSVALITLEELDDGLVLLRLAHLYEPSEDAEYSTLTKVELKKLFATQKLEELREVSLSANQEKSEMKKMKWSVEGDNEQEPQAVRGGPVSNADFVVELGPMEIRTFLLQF
Put plainly: Inhibition of jack bean alpha-mannosidase using p-nitrophenyl glycoside as substrate assessed as release of p-nitrophenol at 1000 uM measured by spectrometric assay relative to control.

Assay [11] can be described thus: Inhibition of jack bean alpha-mannosidase using p-nitrophenyl glycoside as substrate assessed as release of p-nitrophenol measured by spectrometric assay. Further details: species or system Canavalia ensiformis.
A short description of assay [12]: Inhibition of bovine liver beta-galactosidase using p-nitrophenyl glycoside as substrate assessed as release of p-nitrophenol measured by spectrometric assay. The format is tissue-based, Bos taurus.
Assay [13] can be described thus: Inhibition of porcine kidney alpha-trehalase using p-nitrophenyl glycoside as substrate assessed as release of p-nitrophenol measured by spectrometric assay. Further details: species or system Sus scrofa.
For assay [14], the system named is Penicillium decumbens. Put plainly: Inhibition of Penicillium decumbens alpha-L-rhamnosidase using p-nitrophenyl glycoside as substrate assessed as release of p-nitrophenol at 1000 uM measured by spectrometric assay relative to control.
The target in assay [15] is Beta-glucuronidase (Escherichia coli (strain K12)) (UniProt P05804). Put plainly: Inhibition of Escherichia coli beta-glucuronidase using p-nitrophenyl glycoside as substrate assessed as release of p-nitrophenol at 1000 uM measured by spectrometric assay relative to control.
Chain of Beta-glucuronidase (Escherichia coli (strain K12)) (P05804 whole entry, looked up): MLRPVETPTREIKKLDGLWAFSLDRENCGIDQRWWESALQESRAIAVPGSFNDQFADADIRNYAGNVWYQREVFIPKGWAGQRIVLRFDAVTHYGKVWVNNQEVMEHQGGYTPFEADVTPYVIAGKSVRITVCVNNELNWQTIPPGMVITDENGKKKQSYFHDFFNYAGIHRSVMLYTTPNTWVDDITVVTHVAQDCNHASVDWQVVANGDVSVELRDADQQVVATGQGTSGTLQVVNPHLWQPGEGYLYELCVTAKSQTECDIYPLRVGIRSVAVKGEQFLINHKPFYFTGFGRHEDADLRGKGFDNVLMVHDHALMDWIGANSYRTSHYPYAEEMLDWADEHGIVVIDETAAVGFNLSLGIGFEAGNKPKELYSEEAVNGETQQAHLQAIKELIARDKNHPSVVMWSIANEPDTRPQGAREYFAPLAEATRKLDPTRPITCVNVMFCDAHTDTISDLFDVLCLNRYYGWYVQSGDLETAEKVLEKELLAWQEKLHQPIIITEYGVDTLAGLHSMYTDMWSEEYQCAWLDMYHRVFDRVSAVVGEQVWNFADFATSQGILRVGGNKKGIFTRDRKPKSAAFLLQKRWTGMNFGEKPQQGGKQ
A short description of assay [16]: Inhibition of bovine liver beta-glucosidase using p-nitrophenyl glycoside as substrate assessed as release of p-nitrophenol measured by spectrometric assay. Set-up: species or system Bos taurus.
The target in assay [17] is T1, Sucrase-isomaltase, intestinal. The assay is described as follows: Inhibition of rat intestinal sucrase using p-nitrophenyl glycoside as substrate assessed as release of p-nitrophenol measured by spectrometric assay.
The nature of assay [18]: Inhibition of rat intestinal maltase using maltose as substrate assessed as release of D-glucose measured by spectrometric assay.
Assay [19] deals with Helix pomatia. The assay is described as follows: Inhibition of snail beta-mannosidase using p-nitrophenyl glycoside as substrate assessed as release of p-nitrophenol at 1000 uM measured by spectrometric assay relative to control.
The subject of assay [20] is Aspergillus niger. The assay is described as follows: Inhibition of Aspergillus niger amyloglucosidase using p-nitrophenyl glycoside as substrate assessed as release of p-nitrophenol at 1000 uM measured by spectrometric assay relative to control.
Assay [21] deals with Prunus dulcis. The assay is described as follows: Inhibition of almond beta-glucosidase using p-nitrophenyl glycoside as substrate assessed as release of p-nitrophenol at 1000 uM measured by spectrometric assay relative to control.
Assay [22] is filed under the species Bos taurus. The assay is described as follows: Inhibition of bovine liver beta-glucosidase using p-nitrophenyl glycoside as substrate assessed as release of p-nitrophenol at 1000 uM measured by spectrometric assay relative to control. Format: tissue-based.
Assay [23] in a line: Inhibition of snail beta-mannosidase using p-nitrophenyl glycoside as substrate assessed as release of p-nitrophenol measured by spectrometric assay. Further details: species or system Helix pomatia.
The target of assay [24] is T3, Tissue alpha-L-fucosidase (Bos taurus, UniProt Q2KIM0).
T3 sequence (Q2KIM0 whole entry): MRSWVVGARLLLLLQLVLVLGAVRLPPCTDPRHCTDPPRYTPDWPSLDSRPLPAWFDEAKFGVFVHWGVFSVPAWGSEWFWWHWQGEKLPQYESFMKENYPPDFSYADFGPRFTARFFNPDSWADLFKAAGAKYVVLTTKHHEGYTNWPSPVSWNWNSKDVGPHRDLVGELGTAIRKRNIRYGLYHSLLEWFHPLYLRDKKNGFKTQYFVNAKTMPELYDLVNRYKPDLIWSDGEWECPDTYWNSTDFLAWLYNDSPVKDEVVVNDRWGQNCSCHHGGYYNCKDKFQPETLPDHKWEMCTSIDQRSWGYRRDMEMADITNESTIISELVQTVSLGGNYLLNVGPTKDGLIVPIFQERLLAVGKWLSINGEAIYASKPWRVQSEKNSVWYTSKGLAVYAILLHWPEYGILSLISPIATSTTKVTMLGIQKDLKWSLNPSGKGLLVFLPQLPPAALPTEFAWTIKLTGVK
Put plainly: Inhibition of bovine kidney alpha-L-fucosidase using p-nitrophenyl glycoside as substrate assessed as release of p-nitrophenol measured by spectrometric assay.

Assay [25] addresses T4, Tissue alpha-L-fucosidase (Bos taurus) (UniProt Q2KIM0).
T4 sequence (whole entry): T3 sequence (Q2KIM0 whole entry)
Put plainly: Inhibition of bovine kidney alpha-L-fucosidase using p-nitrophenyl glycoside as substrate assessed as release of p-nitrophenol at 1000 uM measured by spectrometric assay relative to control. The format is tissue-based.

Assay [26] is filed under the species Sus scrofa. Put plainly: Inhibition of porcine kidney alpha-trehalase using p-nitrophenyl glycoside as substrate assessed as release of p-nitrophenol at 1000 uM measured by spectrometric assay relative to control.
The species entered for assay [27] is Rattus norvegicus. The assay is described as follows: Inhibition of rat intestinal maltase using maltose as substrate assessed as release of D-glucose at 1000 uM measured by spectrometric assay.
The test system of assay [28] is Oryza sativa. Put plainly: Inhibition of rice alpha-glucosidase using p-nitrophenyl glycoside as substrate assessed as release of p-nitrophenol at 1000 uM measured by spectrometric assay.
The target in assay [29] is Alpha-galactosidase (Coffea arabica) (UniProt Q42656). Put plainly: Inhibition of coffee beans alpha-galactosidase using p-nitrophenyl glycoside as substrate assessed as release of p-nitrophenol at 1000 uM measured by spectrometric assay relative to control.
Chain of Alpha-galactosidase (Coffea arabica) (Q42656 16-378 limits assumed): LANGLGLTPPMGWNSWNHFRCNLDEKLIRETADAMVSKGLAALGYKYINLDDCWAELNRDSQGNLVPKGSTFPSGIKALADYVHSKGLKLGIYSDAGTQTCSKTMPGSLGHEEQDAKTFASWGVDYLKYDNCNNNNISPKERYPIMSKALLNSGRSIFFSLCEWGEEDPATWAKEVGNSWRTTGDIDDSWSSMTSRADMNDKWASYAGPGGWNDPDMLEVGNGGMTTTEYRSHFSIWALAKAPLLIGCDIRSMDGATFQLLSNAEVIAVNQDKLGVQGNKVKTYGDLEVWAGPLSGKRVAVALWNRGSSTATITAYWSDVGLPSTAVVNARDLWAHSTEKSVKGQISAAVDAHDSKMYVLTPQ
Assay [30] can be described thus: Inhibition of beta-glucosidase (unknown origin). Further details: species or system Homo sapiens.
The nature of assay [31]: Inhibition of Agrobacterium sp beta-glucosidase using p-nitrophenyl beta-glucoside as substrate assessed as release of p-nitrophenol measured by plate reader assay.

The structures appear in SMILES notation.

Chain of Beta-glucuronidase (P05804 whole entry): as the sequence (P05804 whole entry, looked up) above

Consider `C[C@]1(CO)NC[C@H](O)[C@@H](O)[C@@H]1O.Cl`, for which the half-maximal inhibitory concentration (IC50) entry in assay [1] was “Not Active”; in [2], “Not Active”; in assay [3] (read-out: IC50), 7.5 µM; in [4], “Not Active”; in [5] (read-out: IC50), 0.0155 µM; in assay [6], “Not Active”. Besides, the concentration for half-maximal inhibition (IC50) in assay [7] was 1 µM; in assay [8] (read-out: IC50) it was 0.96 µM; in assay [11], “Not Active”; in assay [12] it was “Not Active”; in assay [13] (read-out: IC50), 42 µM; in assay [16], “Not Active”. Also, the IC50 is 0.2 µM in assay [17] (read-out: IC50), 0.053 µM in assay [18], “Not Active” in assay [23] and “Not Active” in assay [24]. Besides, the inhibition was found to be 11.9% in [9]; 2.1% in assay [10]; 2.4% in assay [14]; 0% in assay [15]; 2% in [19]; 8% in [20]. For the same molecule, the inhibition in assay [21] is 6.7%; in [22], 9.5%; in [25], 0%.
Turning to `CCCCCCCCCCC[C@@]1(CO)NC[C@H](O)[C@@H](O)[C@@H]1O.Cl`, the half-maximal inhibitory concentration (IC50) result in assay [1], in assay [2], in assay [3], in assay [4], in [5] and in assay [6] was “Not Active” in each case. Moreover, the IC50 result in assay [8] was “Not Active”; in [11] it was “Not Active”; in [12] (read-out: IC50), 100 µM; in [13], “Not Active”; in assay [16], “Not Active”; in assay [17], “Not Active”. Further, the 50% inhibitory concentration (IC50) in assay [18] was 765 µM; in assay [23] it was “Not Active”; in [24] it was “Not Active”. For the same molecule, the inhibition was found to be 0% in assay [26]; 4.6% in assay [27]; 3.3% in assay [10]; 17.6% in assay [28]; 4.8% in assay [14]; 5.3% in assay [15]. The inhibition in [29] turned out to be 1.6%; in assay [19], 0%; in assay [20], 0%; in [21], 5.2%; in assay [22], 29.8%; in [25], 1.1%.
Consider `OC[C@H]1NC[C@H](O)[C@@H](O)[C@@H]1O` [DUVOGLUSTAT], for which the IC50 entry was “Not Active” in assay [1]; 763 µM in assay [2] (read-out: IC50); “Not Active” in [3]; “Not Active” in [4]; 0.44 µM in assay [5] (read-out: IC50); “Not Active” in [6]. The concentration for half-maximal inhibition (IC50) entry in assay [11] is “Not Active”; in [12], “Not Active”; in assay [30], 0.27 µM; in assay [13] (read-out: IC50), 48 µM; in assay [16], “Not Active”; in [18], 0.12 µM. Further, the half-inhibitory concentration (IC50) result in assay [23] and in assay [24] was “Not Active” throughout. The inhibition in assay [9] was determined as 0%; in assay [10], 17.4%; in [14] it was 45.6%; in assay [15], 0.8%; in assay [29], 13.7%; in [19] it was 4.8%. The inhibition in assay [21] came to 12.1%; in assay [22], 4.6%; in assay [25], 1%.
In the case of `CCCCCCCCCCCC[C@@]1(CO)NC[C@H](O)[C@@H](O)[C@@H]1O.Cl`, the 50% inhibitory concentration (IC50) result in assay [1], in assay [2], in assay [3], in assay [4], in [5] and in [6] was “Not Active” each time. Also, the concentration for half-maximal inhibition (IC50) result is “Not Active” in [8]; “Not Active” in [11]; 17 µM in assay [12] (read-out: IC50); “Not Active” in [13]; 47 µM in assay [16] (read-out: IC50); “Not Active” in assay [17]. Further, the IC50 is 660 µM in [18], “Not Active” in assay [23] and “Not Active” in assay [24]. Moreover, the inhibition in [26] stood at 0%; in assay [27] it was 2.3%; in [10] it was 3.3%; in assay [28], 33.6%; in assay [14] it was 1.2%; in [15] it was 13.9%. The inhibition in [29] came out at 0%; in [19], 0.5%; in [20], 0%; in assay [21], 7.6%; in [25], 0%.
With `C#Cc1ccc(C(=O)OCCCCCCN2C[C@H](O)[C@@H](O)[C@H](O)[C@H]2CO)cc1`, in [31], the half-inhibitory concentration (IC50) is 2.2 µM.
